Like-named read-outs stand apart in the source and are kept apart here. Each block holds one molecule with its values, some of them ahead of it. Where a SMILES comes first, the peptide text is derived from it. Bridges are numbered along the chain shown (N, C = ends). [ ]: non-standard residue; d: D form. R8 = C=CCCCCCC[C@@](C)(N)C(=O)O; S5 = C=CCCC[C@](C)(N)C(=O)O; Abu = CC[C@H](N)C(=O)O
Key:
[1] = system: human serum proteins (HSA); assay: Apparent affinity to human serum proteins (Kd*) by EC50 shift analysis; format: in vitro ADME
Text: The measurement of apparent Kd values for serum protein by EC50 shift analysis provides a simple and rapid means of quantifying the propensity of experimental compounds to bind HSA and other serum proteins. A linear relationship exists between the apparent EC50 in the presence of serum protein (EC'50) and the amount of serum protein added to an in vitro assay. This relationship is defined by the binding affinity of the compound for serum proteins, expressed as Kd*. This term is an experimentally determined, apparent dissociation constant that may result from the cumulative effects of multiple, experimentally indistinguishable, binding events. The form of this relationship is presented here in Eq. 0.3, and its derivation can be found in Copeland et al, Biorg. Med. Chem. Lett. 2004, 14:2309-2312.
A significant proportion of serum protein binding can be ascribed to drug interactions with HSA, due to the very high concentration of this protein in serum (35-50 g/L or 530-758 μM). To calculate the Kd value for these compounds we have assumed that the shift in EC50 upon protein addition can be ascribed fully to the HSA present in the added serum, where P is 700 μM for 100% serum, P is 70 μM for 10% serum, etc. We further made the simplifying assumption that all of the compounds bind HSA with a 1:1 stoichiometry, so that the term n in Eq. (0.3) is fixed at unity. With these parameters in place we calculated the Kd* value for each stapled peptide from the changes in EC50 values with increasing serum (and serum protein) concentrations by nonlinear regression analysis of Eq. 0.3 using Mathematica 4.1 (Wolfram Research, Inc., www.wolfram.com). EC'50 values in whole blood are estimated by setting P in Eq. 0.3 to 700 μM [HSA].
The free fraction in blood is estimated using the following equation, as derived by Trainor, Expert Opin. Drug Disc., 2007, 2(1):51-64, where [HSA] total is set at 700 μM.
The following macrocycles derived from the human MAML peptide sequences were tested in cell viability assays (described above) with the MOLT-4 tumor cell line at a range of human serum protein concentrations to determine their apparent affinity to human serum proteins and the projected EC50s in whole human blood: […]

Molt-4 cell line = format: cell-based
Description: Molt-4 cell line (ATCC catalog #CRL-1582) was grown in specific serum-supplemented media (RPMI-1640, Invitrogen catalog #72400) as recommended by ATCC. A day prior to the initiation of the study, cells were split at optimal cell density (2×10^5-5×10^5 cells/ml) to assure actively dividing cells. The next day, cells were washed twice in serum-free Opti-MEM media (Invitrogen, Catalog #51985) and cells were then plated at optimal cell density (10,000 cells/well) in 50 μl Opti-MEM media or Opti-MEM supplemented with 2%, 4% or 10% human serum (Bioreclamation, catalog #HMSRM) in 96-well white tissue culture plate (Nunc, catalog #136102).
For serum free experiment, peptidomimetic macrocycles were diluted from 2 mM stocks (100% DMSO) in sterile water to prepare 400 μM working solutions. The macrocycles and controls were diluted 10-fold first and then serially two-fold diluted in Opti-MEM in dosing plates to provide concentrations of between 1.2 and 40 μM. 50 μL of each dilution was then added to the appropriate wells of the test plate to achieve final concentrations of the polypeptides equal to between 0.6 to 20 μM. For studies using Opti-MEM supplemented with human serum (Bioreclamation, catalog #HMSRM), peptidomimetic macrocycles were diluted from 10 mM stocks (100% DMSO) in sterile water to prepare 2 mM working solutions. The peptide macrocycles and controls were diluted 10-fold first and then serially two-fold diluted in Opti-MEM in the presence of 2%, 4% or 10% of human serum to provide concentrations of the polypeptides equal to between 6.25 to 200 μM in dosing plates. 50 μL of each dilution was then added to the appropriate welts of the test plate to achieve final concentrations of the polypeptides equal to between 3.125 to 100 μM. Controls included wells without polypeptides containing the same concentration of DMSO as the wells containing the macrocycles, wells containing 0.1% Triton X-100 and wells containing no cells. Plates were incubated for 48 hours at 37° C. in humidified 5% CO2 atmosphere.
At the end of the incubation period, CellTiter-Glo assay was performed according to manufacturer's instructions (Promega, catalog #G7573) and luminescence was measured using Synergy HT Plate reader (BioTek).
The following macrocycles derived from the human MAML peptide sequences were tested in cell viability assays with the MOLT-4 tumor cell line: […]

SMILES: CC[C@H](C)[C@H](NC(=O)[C@H](CCCNC(=N)N)NC(=O)[C@H](CCCNC(=N)N)NC(=O)[C@H](CCCNC(=N)N)NC(=O)[C@H](CC(C)C)NC(=O)[C@H](C)NC(C)=O)C(=O)N[C@@H](CCC(=O)O)C(=O)N[C@@H](CC(C)C)C(=O)N[C@@H](C)C(=O)N[C@@H](C)C(=O)N[C@@H](CCCNC(=N)N)C(=O)N[C@@H](Cc1c[nH]cn1)C(=O)N[C@@H](Cc1c[nH]cn1)C(=O)N[C@@]1(C)CCCC=CCCC[C@@](C)(C(=O)N[C@@H](CCCNC(=N)N)C(=O)N[C@@H](Cc2ccc(O)cc2)C(=O)N[C@@H](CCC(=O)O)C(=O)N[C@@H](C)C(=O)N[C@H](C(N)=O)C(C)C)NC(=O)[C@H](CCC(=O)O)NC(=O)[C@H](C)NC(=O)[C@H]([C@@H](C)O)NC1=O [Compound 24, Ac-ALRRRIELAARHH$TAE$RYEAV-NH2] (Ac-ALRRRIELAARHH[S5]TAE[S5]RYEAV-NH2; staple 14-18)
EC50 (Molt-4 cell line; 48 h): > 20 µM

SMILES: CC[C@H](NC(=O)[C@H](CC(C)C)NC(=O)[C@H](CCC(=O)O)NC(=O)[C@@H](NC(=O)[C@H](CCCNC(=N)N)NC(=O)[C@H](CCCNC(=N)N)NC(=O)[C@H](CCCNC(=N)N)NC(=O)[C@H](CC(C)C)NC(=O)[C@H](C)NC(C)=O)[C@@H](C)CC)C(=O)N[C@@H](C)C(=O)N[C@]1(C)CCCCCCC=CCCC[C@@](C)(C(=O)N[C@@H](CCCNC(=N)N)C(=O)N[C@@H](Cc2ccc(O)cc2)C(=O)N[C@@H](CCC(=O)O)C(=O)N[C@@H](C)C(=O)N[C@H](C(N)=O)C(C)C)NC(=O)[C@H](CCC(=O)O)NC(=O)[C@H](CC)NC(=O)[C@H]([C@@H](C)O)NC(=O)[C@H](CO)NC(=O)[C@H](Cc2c[nH]cn2)NC(=O)[C@H](Cc2c[nH]cn2)NC1=O [Compound 25, Ac-ALRRRIELAbuA$r8HHSTAbuE$RYEAV-NH2] (Ac-ALRRRIEL[Abu]A[R8]HHST[Abu]E[S5]RYEAV-NH2; staple 11-18)
EC50 (Molt-4 cell line; MOLT-4 cells, 48 hours incubation, CellTiter-Glo, read-out: Molt 4 viability (EC50)): > 20 µM

SMILES: CC[C@@H]1NC(=O)[C@H](CC(C)C)NC(=O)[C@@](C)(NC(=O)[C@@H](NC(=O)[C@H](CCCNC(=N)N)NC(=O)[C@H](CCCNC(=N)N)NC(=O)[C@H](CCCNC(=N)N)NC(=O)[C@H](CC(C)C)NC(=O)[C@H](C)NC(C)=O)[C@@H](C)CC)CCCC=CCCC[C@@](C)(C(=O)N[C@@H](Cc2c[nH]cn2)C(=O)N[C@@H](Cc2c[nH]cn2)C(=O)N[C@@H](CO)C(=O)N[C@H](C(=O)N[C@@H](C)C(=O)N[C@@H](CCC(=O)O)C(=O)N[C@@H](C)C(=O)N[C@@H](CCCNC(=N)N)C(=O)N[C@@H](Cc2ccc(O)cc2)C(=O)N[C@@H](CCC(=O)O)C(=O)N[C@@H](C)C(=O)N[C@H](C(N)=O)C(C)C)[C@@H](C)O)NC(=O)[C@H](C)NC1=O [Compound 26, Ac-ALRRRI$LAbuA$HHSTAEARYEAV-NH2] (Ac-ALRRRI[S5]L[Abu]A[S5]HHSTAEARYEAV-NH2; staple 7-11)
EC50 (Molt-4 cell line; 48 h): > 20 µM

Next, values leading:

Kd ([1]; human): < 0.1 µM | fraction unbound ([1]; human, serum): < 0.001
SMILES: CC[C@H](C)[C@H](NC(=O)[C@H](CCCNC(=N)N)NC(=O)[C@H](CCCNC(=N)N)NC(=O)[C@H](CCCNC(=N)N)NC(=O)[C@H](CC(C)C)NC(=O)[C@H](CCCNC(=N)N)NC(=O)[C@H](CCC(=O)O)NC(C)=O)C(=O)N[C@@]1(C)CCCC=CCCC[C@@](C)(C(=O)N[C@@H](Cc2c[nH]cn2)C(=O)N[C@@H](Cc2c[nH]cn2)C(=O)N[C@@H](CO)C(=O)N[C@H](C(N)=O)[C@@H](C)O)NC(=O)[C@H](CCCNC(=N)N)NC(=O)[C@H](CS)NC(=O)[C@H](CC(C)C)NC1=O [Compound 1, Ac-ERLRRRI$LCR$HHST-NH2] (Ac-ERLRRRI[S5]LCR[S5]HHST-NH2; staple 8-12)

EC50 (Molt-4 cell line; 48 h): > 20 µM | Kd ([1]; human): < 0.1 µM | fraction unbound ([1]; human, serum): < 0.001
SMILES: CC[C@H](C)[C@H](NC(=O)[C@H](CCCNC(=N)N)NC(=O)[C@H](CCCNC(=N)N)NC(=O)[C@H](CCCNC(=N)N)NC(=O)[C@H](CC(C)C)NC(=O)[C@H](CCCNC(=N)N)NC(=O)[C@H](CCC(=O)O)NC(C)=O)C(=O)N[C@@]1(C)CCCC=CCCC[C@@](C)(C(=O)N[C@@H](Cc2c[nH]cn2)C(=O)N[C@@H](Cc2c[nH]cn2)C(=O)N[C@@H](CO)C(=O)N[C@H](C(N)=O)[C@@H](C)O)NC(=O)[C@H](CCCNC(=N)N)NC(=O)[C@H](C)NC(=O)[C@H](CC(C)C)NC1=O [Compound 4, Ac-ERLRRRI$LAR$HHST-NH2] (Ac-ERLRRRI[S5]LAR[S5]HHST-NH2; staple 8-12)

fraction unbound ([1]; human, estimated with [HSA] total set at 700 μM, read-out: Free Fraction est. in blood): 0.001 | Kd ([1]; nonlinear regression of EC50 shift with increasing human serum, 1:1 HSA binding assumed, 700 μM HSA for 100% serum, read-out: Serum Kd*): 0.6 µM
SMILES: CC[C@H](C)[C@H](NC(=O)[C@H](CCCNC(=N)N)NC(=O)[C@H](CCCNC(=N)N)NC(=O)[C@H](CCCNC(=N)N)NC(=O)[C@H](CC(C)C)NC(=O)[C@H](C)NC(C)=O)C(=O)N[C@@]1(C)CCCC=CCCC[C@@](C)(C(=O)N[C@@H](Cc2c[nH]cn2)C(=O)N[C@@H](Cc2c[nH]cn2)C(=O)N[C@@H](CO)C(=O)N[C@H](C(N)=O)[C@@H](C)O)NC(=O)[C@H](C)NC(=O)[C@H](CS)NC(=O)[C@H](CC(C)C)NC1=O [Compound 19, Ac-ALRRRI$LCA$HHST-NH2] (Ac-ALRRRI[S5]LCA[S5]HHST-NH2; staple 7-11)

EC50 (Molt-4 cell line; 48 h): 3.7 µM
SMILES: CC[C@@H]1NC(=O)[C@H](CC(C)C)NC(=O)[C@@](C)(NC(=O)[C@@H](NC(=O)[C@H](CCCNC(=N)N)NC(=O)[C@H](CCCNC(=N)N)NC(=O)[C@H](CCCNC(=N)N)NC(=O)[C@H](CC(C)C)NC(=O)[C@H](C)NC(=O)[C@H](CCCNC(=N)N)NC(C)=O)[C@@H](C)CC)CCCC=CCCC[C@@](C)(C(=O)N[C@@H](Cc2c[nH]cn2)C(=O)N[C@@H](Cc2c[nH]cn2)C(=O)N[C@@H](CO)C(=O)N[C@H](C(N)=O)[C@@H](C)O)NC(=O)[C@H](C)NC1=O [Compound 31, Ac-RALRRRI$LAbuA$HHST-NH2] (Ac-RALRRRI[S5]L[Abu]A[S5]HHST-NH2; staple 8-12)

Reference: patent US20120115793A1, “PEPTIDOMIMETIC MACROCYCLES” (Alleron Therapeutics, Inc, priority 2008, published 2012)
